# Source: ChEMBL document CHEMBL1201862, “PubChem BioAssay data set” (2004)
# The source made the active and inactive calls. Rule as the data show it: actives have a measured IC50 and inactives only a lower limit.
# Assays:
# [1] = target: T1, Sentrin-specific protease 7 (Homo sapiens, UniProt Q9BQF6); type: functional;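 also: Luminescence-based dose-response confirmation of ultra-high-throughput screening hits, measuring inhibition of SENP7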
# T1 sequence (Q9BQF6 whole entry): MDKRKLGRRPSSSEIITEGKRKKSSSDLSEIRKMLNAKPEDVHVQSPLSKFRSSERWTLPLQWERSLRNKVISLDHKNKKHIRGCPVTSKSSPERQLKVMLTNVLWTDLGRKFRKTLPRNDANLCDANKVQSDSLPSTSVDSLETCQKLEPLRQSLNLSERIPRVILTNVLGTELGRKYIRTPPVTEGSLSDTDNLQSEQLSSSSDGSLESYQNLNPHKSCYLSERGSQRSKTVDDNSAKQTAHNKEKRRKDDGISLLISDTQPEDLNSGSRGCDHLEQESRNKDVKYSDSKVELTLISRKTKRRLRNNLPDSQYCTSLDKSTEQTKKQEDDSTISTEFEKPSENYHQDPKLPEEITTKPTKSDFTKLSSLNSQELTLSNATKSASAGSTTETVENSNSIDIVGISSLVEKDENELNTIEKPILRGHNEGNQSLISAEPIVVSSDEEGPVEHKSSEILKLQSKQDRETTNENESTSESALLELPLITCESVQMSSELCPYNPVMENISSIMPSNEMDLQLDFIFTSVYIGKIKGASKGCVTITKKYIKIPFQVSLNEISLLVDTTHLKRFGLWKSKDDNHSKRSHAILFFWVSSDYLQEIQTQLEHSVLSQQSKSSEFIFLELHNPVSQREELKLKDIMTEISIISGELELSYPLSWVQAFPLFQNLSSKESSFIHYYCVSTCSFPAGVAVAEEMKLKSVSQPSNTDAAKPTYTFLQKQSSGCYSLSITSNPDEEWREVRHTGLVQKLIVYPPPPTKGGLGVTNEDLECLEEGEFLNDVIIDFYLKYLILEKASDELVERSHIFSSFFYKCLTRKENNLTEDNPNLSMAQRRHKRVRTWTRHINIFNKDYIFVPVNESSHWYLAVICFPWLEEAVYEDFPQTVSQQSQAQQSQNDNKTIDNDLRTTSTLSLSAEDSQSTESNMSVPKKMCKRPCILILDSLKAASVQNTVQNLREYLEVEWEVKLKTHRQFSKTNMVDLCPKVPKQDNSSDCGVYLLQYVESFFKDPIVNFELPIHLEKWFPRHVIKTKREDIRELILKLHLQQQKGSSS
# [2] = target: T2, Sentrin-specific protease 6 (Homo sapiens, UniProt Q9GZR1); type: functional;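 also: Luminescence-based dose-response confirmatory assay of SENP6 inhibition, following up an ultra-high-throughput screen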
# T2 sequence (Q9GZR1 whole entry): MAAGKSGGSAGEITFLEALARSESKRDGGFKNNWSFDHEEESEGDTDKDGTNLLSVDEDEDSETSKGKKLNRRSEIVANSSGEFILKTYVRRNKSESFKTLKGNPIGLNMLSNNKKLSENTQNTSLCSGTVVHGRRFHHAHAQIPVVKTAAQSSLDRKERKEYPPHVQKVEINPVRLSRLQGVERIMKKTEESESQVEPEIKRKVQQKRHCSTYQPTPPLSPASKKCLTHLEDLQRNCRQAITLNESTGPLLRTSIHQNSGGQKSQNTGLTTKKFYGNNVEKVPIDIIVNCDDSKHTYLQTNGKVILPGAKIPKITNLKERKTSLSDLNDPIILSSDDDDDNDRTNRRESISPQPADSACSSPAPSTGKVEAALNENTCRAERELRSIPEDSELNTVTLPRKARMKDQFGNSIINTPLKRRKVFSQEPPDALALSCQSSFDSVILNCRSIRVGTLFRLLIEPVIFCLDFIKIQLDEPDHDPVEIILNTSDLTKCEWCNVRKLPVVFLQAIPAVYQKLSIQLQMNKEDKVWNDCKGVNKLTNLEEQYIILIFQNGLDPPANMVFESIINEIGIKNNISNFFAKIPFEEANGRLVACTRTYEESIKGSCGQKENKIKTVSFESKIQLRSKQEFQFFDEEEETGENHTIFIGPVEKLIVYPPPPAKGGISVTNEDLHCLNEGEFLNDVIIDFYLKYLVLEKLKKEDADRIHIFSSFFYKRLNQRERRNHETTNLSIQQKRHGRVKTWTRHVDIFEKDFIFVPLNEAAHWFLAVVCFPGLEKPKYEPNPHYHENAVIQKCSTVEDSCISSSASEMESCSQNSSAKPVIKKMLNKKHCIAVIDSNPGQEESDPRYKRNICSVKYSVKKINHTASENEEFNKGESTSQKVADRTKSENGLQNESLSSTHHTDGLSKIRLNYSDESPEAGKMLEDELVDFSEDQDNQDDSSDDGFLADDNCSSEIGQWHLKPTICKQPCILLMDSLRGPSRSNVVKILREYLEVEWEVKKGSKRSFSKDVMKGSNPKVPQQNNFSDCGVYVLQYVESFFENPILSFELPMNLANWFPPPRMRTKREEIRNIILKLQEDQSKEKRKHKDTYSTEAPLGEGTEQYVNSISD
SMILES,IC50 [1],IC50 [2]
O=C(NC1(O)C(=O)c2ccccc2C1=O)c1ccc(C(F)(F)F)cc1,3.51 µM (active),2.66 µM (active)
O=C(NC1(O)C(=O)c2ccccc2C1=O)c1c(Cl)cccc1Cl,3.76 µM (active),3.53 µM (active)
O=C(COC(=O)c1ccc([N+](=O)[O-])s1)Nc1ncc(C(F)(F)F)cc1Cl,10.5 µM (active),5.68 µM (active)
CCN(c1ccccc1)c1cc2ccccc2c(=O)[nH]1,3.37 µM (active),2.21 µM (active)
